The supplement of paper PMC8024199
± gives the standard deviation of the averaged measurements.

Legend:
Assay in all cases: drug sensitivity score (DSS) (DSS score); higher = more sensitive (stronger growth inhibition); extreme values may be limits of the assay
[1] = system: Ba/F3 P210-BCR-ABL1 RUNX1wt/wt control (mouse)
In short: (§1)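 A drug sensitivity score summarised each dose-response curve, with luminescence from CellTiter-Glo scaled between vehicle and positive-control wells. Values are the mean of two replicates. The cells were mouse Ba/F3 clones that were CRISPR/Cas9-edited at a target exon or were edited controls, exposed on pre-printed 384-well plates to a 528-compound library at five concentrations spanning a 10,000-fold range. Plates held 10,000 cells per well in RPMI with 10% FBS for 72 h at 37 °C and 5% CO2.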

[2] = system: Ba/F3 P210-BCR-ABL1 RUNX1-/- (mouse)
In short: as §1

[3] = system: Ba/F3 P210-BCR-ABL1 RUNX1-/mut (mouse)
In short: as §1

SMILES | drug sensitivity score [1] | drug sensitivity score [2] | drug sensitivity score [3]
CC#CC(=O)N1CC[C@@H](n2c(=O)n(-c3ccc(Oc4ccccc4)cc3)c3c(N)ncnc32)C1 [Tirabrutinib] | 0 | 0.85 ± 0.92 | 0.65 ± 0.78
COc1cc2nccc(Oc3ccc(NC(=O)Nc4cc(C)on4)c(Cl)c3)c2cc1OC [Tivozanib] | 14.45 ± 0.071 | 22.8 ± 0.92 | 18.1 ± 0.92
COc1cc2c(NC3CCN(C(C)C)CC3)nc(N3CCC(F)(F)CC3)nc2cc1OCCCN1CCCC1 [UNC0642] | 0.15 ± 0.071 | 5.35 ± 1.6 | 6.5 ± 3
CC(C)(C)Cn1c(N)nc2ccc(-c3[nH]c(C(C)(C)C)nc3-c3ccc(F)cc3)nc21 [Ralimetinib] | 0.7 ± 0.99 | 9.6 ± 3.2 | 8 ± 4.2
CO[C@H]1C[C@@H]2CC[C@@H](C)[C@@](O)(O2)C(=O)C(=O)N2CCCC[C@H]2C(=O)O[C@H]([C@H](C)C[C@@H]2CC[C@@H](O)[C@H](OC)C2)CC(=O)[C@H](C)/C=C(\C)[C@@H](O)[C@@H](OC)C(=O)[C@H](C)C[C@H](C)/C=C/C=C/C=C/1C [Sirolimus] | 0.5 ± 0.71 | 7.6 ± 1.7 | 8.4 ± 3.4
CC(C)(C)c1nc(-c2cccc(NS(=O)(=O)c3c(F)cccc3F)c2F)c(-c2ccnc(N)n2)s1 [Dabrafenib] | 2.2 ± 0.42 | 2.6 ± 0.85 | 0.05 ± 0.071
CN1CCC(CNc2ccc3ncc(-c4cccc(OC(F)(F)F)c4)n3n2)CC1 [SGI-1776] | 5.2 ± 0.14 | 10.1 ± 0.71 | 9.65 ± 2.2
CN(C)C(=O)c1ccc(S(=O)(=O)c2ccc(NC(=O)[C@@](C)(O)C(F)(F)F)c(Cl)c2)cc1 [AZD7545] | 0 | 0.65 ± 0.071 | 0
C=CCN(/C=C1/C(=O)O[C@H](COC)[C@@]2(C)C1=C(O)C(=O)C1=C2[C@H](OC(C)=O)C[C@]2(C)C(=O)CC[C@@H]12)CC=C [Sonolisib] | 0 | 1.7 ± 1.1 | 0.7 ± 0.99
CCC1=C[C@@H]2CN(C1)Cc1c([nH]c3ccccc13)[C@@](C(=O)OC)(c1cc3c(cc1OC)N(C)[C@H]1[C@@](O)(C(=O)OC)[C@H](OC(C)=O)[C@]4(CC)C=CCN5CC[C@]31[C@@H]54)C2 [Vinorelbine] | 19.1 | 38 ± 2.1 | 36.1 ± 1.1
COc1cc(C(=O)O)ccc1NC(=O)[C@@H]1N[C@@H](CC(C)(C)C)[C@](C#N)(c2ccc(Cl)cc2F)[C@H]1c1cccc(Cl)c1F [Idasanutlin] | 5.05 ± 0.21 | 9.4 ± 13 | 8.5 ± 12
Cc1ncc(Cl)cc1NCc1ccc(C(=O)N[C@@H](CC2CCCC2)C(=O)NC2CC2)s1 | 0 | 4.65 ± 0.21 | 4 ± 4.5
CC(=O)c1cc2c(o1)C(=O)c1ccccc1C2=O [Napabucasin] | 11.1 ± 2.5 | 17.4 ± 0.14 | 19.4 ± 3
Cc1ccc(C(=O)N(CCCN)[C@@H](c2oc3cc(Cl)ccc3c(=O)c2Cc2ccccc2)C(C)C)cc1 | 1.9 ± 0.14 | 9.5 ± 6.1 | 6.65 ± 4.7
CC(C)C[C@H](NC(=O)[C@@H](COC(C)(C)C)NC(=O)[C@H](Cc1ccc(O)cc1)NC(=O)[C@H](CO)NC(=O)[C@H](Cc1c[nH]c2ccccc12)NC(=O)[C@H](Cc1cnc[nH]1)NC(=O)[C@@H]1CCC(=O)N1)C(=O)N[C@@H](CCCNC(=N)N)C(=O)N1CCC[C@H]1C(=O)NNC(N)=O [Goserelin] | 0 | 0 | 0.4
c1cn2cc(-c3ccc4cn[nH]c4c3)nc(Nc3ccc(N4CCOCC4)cc3)c2n1 [Entospletinib] | 0 | 1.95 ± 1.3 | 1.35 ± 1.9
S=C(NCc1ccc2c(c1)OCO2)N1CCN(c2ncnc3c2oc2ccccc23)CC1 [Amuvatinib] | 14.9 ± 1.1 | 11.3 ± 1.3 | 8.45 ± 1.9
O=c1[nH]c(C2CCCN2)nc2c1oc1ccc(Cl)cc12 (stereo unspecified) | 0 | 7.1 ± 1.1 | 2.3 ± 2.3
Cc1ccc(NC(=O)c2ccc(CN3CC[C@H](N(C)C)C3)c(C(F)(F)F)c2)cc1Nc1nccc(-c2cncnc2)n1 [Bafetinib] | 16.3 | 26.55 ± 0.21 | 19.9 ± 1.5
Nc1nc(NC2CC2)cc(-c2cccc(Cl)c2Cl)n1 [TH588] | 3.6 ± 1.1 | 5.45 ± 0.35 | 4.45 ± 4.7
N#CC[C@H](C1CCCC1)n1cc(-c2ncnc3[nH]ccc23)cn1 [Ruxolitinib] | 0 | 2.2 ± 0.71 | 1.45 ± 2
CN(C)CC#Cc1ccc(OCCCc2sc(N3CCc4cccc(C(=O)Nc5nc6ccccc6s5)c4C3)nc2C(=O)O)c(F)c1 | 3 ± 0.14 | 5.55 ± 0.071 | 5.95 ± 4.7
